In assay [1] the target is T1, interaction of MPM-2 antigens with GST-hPin1 (Homo sapiens, UniProt Q13526).
T1 construct: made in house
Kind of assay: MPM-2 competition assay. Conditions: mitotic HeLa cell lysate, 8 μM GST-hPin1. The format is binding. The protocol:
FIG. 7 depicts the influence of peptide 17 on the interaction of MPM-2 antigens with hPin1. The indicated concentration of peptide 17 or its nonphosphorylated derivative (control) was incubated with an 8 μM solution of GST-hPin1. After addition of mitotic HeLa cell lysate, GST-hPin1 was extracted from the respective mixture using glutathione sepharose. Samples were analyzed regarding extracted GST-hPin1 and coprecipitated MPM-2 antigenes by SDS PAGE and western blot analysis. Untreated lysate of mitotic HeLa cells was loaded on the first line (extract). MPM-2 antigenes were detected using the monoclonal anti MPM-2 antibody (mouse). GST-hPin1 was detected using an anti hPin1 PPIase domain antiserum (rabbit). Horseradish peroxidase-conjugated antibodies from mouse or rabbit were used as secondary antibodies. […]
1.3 mM of Peptide 17 or its nonphosphorylated derivative were incubated with GST-hPin1 (8 μM) for 2 hours at 4° C. […] Following SDS-PAGE, the samples were analyzed by western blot analysis. GST-hPin1 and coextracted MPM-2 antigens were detected using an anti hPin1 PPIase domain antiserum (rabbit) or monoclonal anti MPM-2 antibody (Upstate Biotechnology) from mouse. […]
MPM-2 antigens are mitotic phosphoproteins that are specifically recognized by the monoclonal antibody MPM-2. […] The coextracted MPM-2 antigenes were detected after SDS PAGE by western blot analysis using the anti MPM-2 antibody. […]

Another assay concerns the target FKBP12 (Homo sapiens, UniProt P62942). Nature of the assay: Protease coupled PPIase assay, FKBP12. The format is biochemical. The procedure:
PPIase activities were monitored on a Hewlett-Packard 8452A diode array spectrophotometer according to Fischer et al., 1984 and Zhang et al., 2002. The hPar14 PPIase activity was measured with Suc-Ala-Arg-Pro-Phe-NH-Np (SEQ ID NO: 3) (final concentration 75 μM) as substrate and α-chymotrypsin (final concentration 60 μM) as isomer specific protease. PPIase activity of hCyp 18 and FKBP12 were measured using Suc-Ala-Ala-Pro-Phe-NH-Np (SEQ ID NO: 7) as substrate (final concentration 16 μM) and α-chymotrypsin (final concentration 60 μM) as isomer specific protease. PPIase activity of hPin1 was measured with Ac-Ala-Ala-Ser(PO3H2)-Pro-Arg-NH-Np (SEQ ID NO: 4) (final concentration 10 μM) as substrate and trypsin (final concentration 60 μM) as isomer specific protease. […] Measurements were monitored at 390 nm.
Data analysis was performed by single-exponential nonlinear regression using the SigmaPlot Scientific Graphing System Version 5.00 (Jandel Corp.). […] The rate constant k0 was determined in the absence of Pin1. The first order rate constants kenz was calculated from the equation kenz=kobs−k0. IC50 and Ki values were determined by fitting the first order rate constants kenz against the concentration of the inhibitory peptide by nonlinear regression according to Schutkowski et al., 1995 or a model for tight binding inhibitors (Morrison, 1969).

The results in this text go back to patent US8258099B2, “Pin1-modulating compounds and methods of use thereof” (Max-Planck-Gesellschaft zur Foerderung der Wissenschaften …, priority 2004, dated 2012).

Square brackets hold non-standard residues; d marks the D form. Peptide text beside a SMILES is read from it. d(pT) = C[C@H](OP(=O)(O)O)[C@@H](N)C(=O)O; 2Nal = N[C@@H](Cc1ccc2ccccc2c1)C(=O)O; Pip = O=C(O)[C@@H]1CCCCN1

FKBP12, sequence (P62942 whole entry): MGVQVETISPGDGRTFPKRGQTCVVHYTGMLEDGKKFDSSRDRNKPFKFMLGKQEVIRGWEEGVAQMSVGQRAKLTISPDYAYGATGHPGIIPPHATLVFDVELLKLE
T1 sequence (Q13526 whole entry): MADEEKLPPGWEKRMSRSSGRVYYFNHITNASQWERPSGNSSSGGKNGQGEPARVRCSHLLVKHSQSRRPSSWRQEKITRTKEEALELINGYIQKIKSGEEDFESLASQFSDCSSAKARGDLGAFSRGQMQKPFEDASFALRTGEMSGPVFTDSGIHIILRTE

`CC(=O)N[C@@H](Cc1ccccc1)C(=O)N[C@@H](C(=O)N1CCCC[C@H]1C(=O)N[C@@H](Cc1ccc2ccccc2c1)C(=O)N[C@@H](CCC(N)=O)C(N)=O)[C@H](C)OP(=O)(O)O` [Peptide 17, Ac-Phe-D-Thr(PO3H2)-Pip-Nal-Gln-NH2] (Ac-F[d(pT)][Pip][2Nal]Q-NH2): in assay [1], the “influence on interaction of MPM-2 antigenes with GST-hPin1” value is “did not influence”. The “inhibition of FKBP12” value against FKBP12 was “no inhibition”.
